Measured values as given in PMC11770272, “Surface immobilization of single atoms on heteroatom-doped carbon nanospheres through phenolic-mediated interfacial anchoring for highly efficient biocatalysis” (Chemical Science, 2025).

Tested on: T1, natural horseradish peroxidase (HRP)
T1 construct: gene PRXC1A
Assay: steady-state kinetics, absorbance of oxidized TMB at […] nm
Format: biochemical, Armoracia rusticana
Details: H2O2 as co-substrate, HAc-NaAc buffer pH 3.6, 37 °C

**Q.** How did the Km turn out when Cc1cc(-c2cc(C)c(N)c(C)c2)cc(C)c1N [TMB] was run?
**A.** 1650 µM
